For the experiment, the target named is HumRADA2 (Pyrococcus furiosus, UniProt O74036, D220A/DEL288-314/E219S/I169M/K221M/V202Y/Y201A). Nature of the experiment: Isothermal titration calorimetry (ITC), direct binding to HumRADA2. The note with it: for LLE: LLE=pKD−clog P, clog P calculated with Instant JChem (ChemAxon); for KD: ITC, substituted tryptamine sulfonamide series (Table 2), error from fitting a single-site binding model. The text has this:
We previously published fragment-screening results using a humanised RAD51 surrogate from Pyrococcus furiosus, which we refer to as HumRADA2 (previously referred to as MAYSAM RadA).[23] In this surrogate protein, the N-terminal domain with the oligomerisation sequence was removed to monomerise the protein and expose the FxxA binding site for screening, and six surface residues were mutated around the Phe pocket in order to humanise the protein in this region.
Supplemental Experimental Procedures
C-terminal ATPase domain of P. furiosus RadA (residues 108–349, with deletion of the “L2” loop residues 288–314) was expressed in E.coli and purified as described before using ion-exchange ad size exclusion chromatographies.[1] Purified protein was concentrated to 0.5 mM, flash frozen in liquid nitrogen and stored at -80C. Protein concentration was determined by measuring absorbance at 280 nm in 6M GndHCl and using calculated absorption coefficient […]
Isothermal Titration Calorimetry
ITC experiments were performed at 25°C on a MicroCal ITC-200 (GE Healthcare).
HumRadA2 (humanized RadA) (600 µM in 20 mM MES pH 6.0 with 100 mM NaCl and 0.5 mM EDTA was diluted with Tris buffer (200 mM, pH 7.5 with 100 mM NaCl), and DMSO was added to match to the ligand solution. In titrations with ATP, 5 mM MgCl2 was included in the ligand buffer and the protein buffer. Compounds in DMSO were diluted into the same Tris buffer to give a final concentration of 0.6–10 mM ligand in 10% DMSO and Tris buffer. Care was taken to ensure that the DMSO concentrations in the protein and ligand solutions were well matched so as to avoid artefacts arising from heats of dilution of DMSO. In a typical experiment, protein (60 µM) was loaded in the sample cell, and 16 injections (2.4 µL) of 4.8 s duration were made at 80 s intervals from a syringe loaded with ligand (0.6–10 mM) and rotating at 1000 rpm. In all titrations, an initial injection of ligand (0.4 µL) was made and discarded during data analysis. Control titrations of ligand to buffer were performed and […]
The thermodynamic parameters were obtained by fitting the data to a single-site-binding model by using Origin software and fixing the stoichiometry as 1.0 for […]

Where [1] appears, read: tryptophan ester series (Table 1).
[2] abbreviates: ITC thermodynamic binding profile, Table S1.
The mark [3] stands for this setting: substituted tryptamine series (Table 2).

Read-outs that look alike come from different tables or passages of the source. A value given as a limit tells only on which side of the number the result lay.

For orientation: Kd means the constant that tells how readily two partners part at equilibrium. Molecule `Cl.N[C@@H](Cc1c[nH]c2ccccc12)C(=O)Oc1ccccc1` [5 a] came in with a Kd of 190 ± 5 µM. Moreover, under setting [1], the LLE is on record as 0.7 and the “LE (ligand efficiency)” value was found to be 0.24 kcal mol−1 per heavy atom.

In turn, `Cl.N[C@@H](Cc1c[nH]c2ccccc12)C(=O)OCc1ccccc1` [5 b] came in with a Kd of 200 ± 8 µM. In addition, under setting [1], the LLE was 0.7 and the “LE (ligand efficiency)” value came out at 0.23 kcal mol−1 per heavy atom.

Molecule `Cl.N[C@@H](Cc1c[nH]c2ccccc12)C(=O)OCCCc1ccccc1` [5 d] came in with a Kd of 160 ± 7 µM. In addition, under setting [1], the LLE is 0.02 and the “LE (ligand efficiency)” value turned out to be 0.22 kcal mol−1 per heavy atom.

As to `N[C@@H](Cc1c[nH]c2ccccc12)C(=O)NCCc1ccccc1` [5 e], the Kd was greater than 200 µM.

Take `Cl.N[C@@H](Cc1c[nH]c2ccccc12)C(=O)OCCc1ccccc1F` [5 f]: binding was characterised by a dissociation constant (Kd) of 25 ± 5 µM. Under setting [1], the LLE is listed as 1.1 and the “LE (ligand efficiency)” value was found to be 0.26 kcal mol−1 per heavy atom.

`Cl.N[C@@H](Cc1c[nH]c2ccccc12)C(=O)OCCc1ccccc1O` [5 g] showed a Kd of 27 ± 12 µM. For the same molecule, under setting [1], the LLE was 1.5 and the “LE (ligand efficiency)” value is 0.26 kcal mol−1 per heavy atom.

Molecule `Cc1ccccc1CCOC(=O)[C@@H](N)Cc1c[nH]c2ccccc12.Cl` [5 h] had a Kd of 30 ± 9 µM. Under setting [1], the LLE is given as 0.7 and the “LE (ligand efficiency)” value amounted to 0.26 kcal mol−1 per heavy atom.

Consider `Cc1cccc(CCOC(=O)[C@@H](N)Cc2c[nH]c3ccccc23)c1.Cl` [5 i], for which binding was characterised by a dissociation constant (Kd) of 30 ± 7 µM. In addition, under setting [1], the LLE is listed as 0.7 and the “LE (ligand efficiency)” value stood at 0.26 kcal mol−1 per heavy atom.

Regarding `Cc1ccc(CCOC(=O)C(N)Cc2c[nH]c3ccccc23)cc1` (centres unmarked) [5 j], binding was characterised by a dissociation constant (Kd) of 22 ± 4 µM. Under setting [1], the LLE is listed as 0.8 and the “LE (ligand efficiency)” value was found to be 0.26 kcal mol−1 per heavy atom.

Molecule `COc1ccc(CCOC(=O)[C@@H](N)Cc2c[nH]c3ccccc23)cc1` [5 k] had a Kd greater than 200 µM.

In turn, `N[C@@H](Cc1c[nH]c2ccccc12)C(=O)OCCc1ccc(Br)cc1` [5 l] registered a Kd greater than 200 µM.

Molecule `Cl.N[C@@H](Cc1c[nH]c2ccccc12)C(=O)OCCC1CCCCC1` [5 m] registered a Kd of 28 ± 9 µM. Under setting [1], the LLE was 0.8 and the “LE (ligand efficiency)” value turned out to be 0.27 kcal mol−1 per heavy atom.

`Cl.N[C@@H](Cc1c[nH]c2ccccc12)C(=O)OCCc1c[nH]c2ccccc12` [5 n] displayed a Kd of 35 ± 9 µM. Further, under setting [1], the LLE was 1.0 and the “LE (ligand efficiency)” value was found to be 0.23 kcal mol−1 per heavy atom.

For `O=C(NC(Cc1c[nH]c2ccccc12)C(=O)OCCc1ccccc1)c1ccccc1` (centres unmarked) [6 a], binding was put at a Kd of 3 ± 1 µM. Under setting [2], the “-TDS” value is -4.2 kcal/mol, the DG is -7.6 kcal/mol and the DH is -3.4 kcal/mol. In addition, under setting [1], the LLE is reported as 0.5 and the “LE (ligand efficiency)” value turned out to be 0.24 kcal mol−1 per heavy atom.

`CC(=O)N[C@@H](Cc1c[nH]c2ccccc12)C(=O)OCCc1ccccc1F` [6 b] gave a Kd of 18 ± 1 µM. Under setting [1], the LLE is recorded as 1.5 and the “LE (ligand efficiency)” value came to 0.25 kcal mol−1 per heavy atom.

On to `O=C(N[C@@H](Cc1c[nH]c2ccccc12)C(=O)OCCc1ccccc1)c1cccc([N+](=O)[O-])c1` [6 c], for which the Kd is greater than 200 µM.

`O=C(NC(Cc1c[nH]c2ccccc12)C(=O)OCCc1ccccc1)C1CCCCC1` (centres unmarked) [6 d] displayed a Kd greater than 200 µM.

On to `O=C(CCc1ccccc1)N[C@@H](Cc1c[nH]c2ccccc12)C(=O)OCCc1ccccc1` [6 e], for which the Kd is greater than 200 µM.

`O=S(=O)(NCCc1c[nH]c2ccccc12)c1ccccc1` [7 a]: the affinity, expressed as Kd, was 28 ± 6 µM. Also, under setting [3], the LLE is 1.6 and the “LE (ligand efficiency)” value was found to be 0.30 kcal mol−1 per heavy atom.

For `O=S(=O)(Cc1ccccc1)NCCc1c[nH]c2ccccc12` [7 b], the Kd is greater than 200 µM and the KD entry was “No activity was detectable”.

The molecule `O=S(=O)(NCCc1c[nH]c2ccccc12)c1ccc(Br)cc1` [7 c] returned a Kd of 92 ± 22 µM. Under setting [3], the LLE is 0.4 and the “LE (ligand efficiency)” value stood at 0.25 kcal mol−1 per heavy atom.

The molecule `O=S(=O)(NCCc1c[nH]c2ccccc12)c1ccccc1Br` [7 d] had a Kd of 3.1 ± 0.1 µM. Moreover, under setting [3], the LLE is recorded as 1.8 and the “LE (ligand efficiency)” value was 0.34 kcal mol−1 per heavy atom.

For the molecule `O=[N+]([O-])c1cccc(S(=O)(=O)NCCc2c[nH]c3ccccc23)c1` [7 e], the Kd was determined as 18 ± 4 µM. Also, under setting [3], the LLE is 1.9 and the “LE (ligand efficiency)” value came to 0.27 kcal mol−1 per heavy atom.

In turn, `Nc1cccc(S(=O)(=O)NCCc2c[nH]c3ccccc23)c1` [7 f] had a dissociation constant Kd of 31 ± 6 µM. Also, under setting [3], the LLE is reported as 2.4 and the “LE (ligand efficiency)” value is 0.28 kcal mol−1 per heavy atom.

Regarding `COc1ccc(S(=O)(=O)NCCc2c[nH]c3ccccc23)cc1` [7 g], the Kd was found to be 120 ± 10 µM. Further, under setting [3], the LLE is recorded as 1.2 and the “LE (ligand efficiency)” value came to 0.23 kcal mol−1 per heavy atom.

Turning to `CS(=O)(=O)NCCc1c[nH]c2ccccc12` [7 i], the Kd was greater than 200 µM and the KD result is “No activity was detectable”.

`O=S(=O)(NCCc1c[nH]c2ccccc12)c1cccs1` [7 j] registered a Kd of 16 ± 6 µM. Under setting [3], the LLE is 1.9 and the “LE (ligand efficiency)” value amounted to 0.33 kcal mol−1 per heavy atom.

`O=S(=O)(NCCc1c[nH]c2ccccc12)c1ccc(Br)s1` [7 k]: the affinity, expressed as Kd, was 10 ± 1 µM. Also, under setting [3], the LLE is on record as 1.2 and the “LE (ligand efficiency)” value was found to be 0.32 kcal mol−1 per heavy atom.

As for `O=S(=O)(NCCc1c[nH]c2ccccc12)c1ccc(Cl)s1` [7 l], the Kd was 13 ± 1 µM. Besides, under setting [3], the LLE is recorded as 1.3 and the “LE (ligand efficiency)” value is given as 0.32 kcal mol−1 per heavy atom.

In the case of `O=S(=O)(NCCc1c[nH]c2ccccc12)c1c(Cl)sc(Cl)c1Br` [7 n], binding was put at a Kd of 2.3 ± 0.4 µM. In addition, under setting [3], the LLE was 0.6 and the “LE (ligand efficiency)” value turned out to be 0.33 kcal mol−1 per heavy atom.

For the molecule `O=S(=O)(NCCc1c[nH]c2ccccc12)c1cc(Br)c(Br)s1` [7 o], the Kd came out at 67 ± 29 µM. Further, under setting [3], the LLE was −0.4 and the “LE (ligand efficiency)” value was 0.27 kcal mol−1 per heavy atom.

As for `O=S(=O)(NCCc1c[nH]c2ccccc12)c1cc2ccccc2s1` [7 p], the affinity, expressed as Kd, was 1.6 ± 0.6 µM. Under setting [3], the LLE is given as 1.8 and the “LE (ligand efficiency)” value is 0.33 kcal mol−1 per heavy atom.

Turning to `Cc1noc(C)c1S(=O)(=O)NCCc1c[nH]c2ccccc12` [7 q], the affinity, expressed as Kd, was 110 ± 12 µM. For the same molecule, under setting [3], the LLE is 2.4 and the “LE (ligand efficiency)” value turned out to be 0.25 kcal mol−1 per heavy atom.

Take `O=S(=O)(NCCc1c[nH]c2ccccc12)c1ccco1` [7 r]: the Kd stood at 18 ± 2 µM. Under setting [3], the LLE is 2.6 and the “LE (ligand efficiency)” value is given as 0.32 kcal mol−1 per heavy atom.

With `Cn1cnc(S(=O)(=O)NCCc2c[nH]c3ccccc23)c1` [7 s], the Kd worked out at 420 ± 74 µM. Also, under setting [3], the LLE is 1.8 and the “LE (ligand efficiency)” value was determined as 0.22 kcal mol−1 per heavy atom.

Take `Nc1ncnc2c1ncn2[C@@H]1O[C@H](COP(=O)(O)OP(=O)(O)OP(=O)(O)O)[C@@H](O)[C@H]1O` [ATP, reference compound]: under “ITC against apo protein, in the absence of 5 c, read-out: KD”, the Kd came out at 2.5 µM.

The record behind these values is PMC4506530, “Small-Molecule Inhibitors That Target Protein–Protein Interactions in the RAD51 Family of Recombinases” (Chemmedchem, 2014).
